Assay results from patent publication US11844801B2, “Oral compositions of MK2 pathway inhibitor for treatment of immune conditions” (priority 2020, dated 2023).
In brackets after ≈: the same amount, converted by molar mass. Read-outs that look alike come from different tables or passages of the source.

Tests used:
[1] = test system: IL-1α; assay: Human PBMC LPS stimulated IL-1α biosynthesis; assay type: cell-based; details: hPBMC, 100 ng/mL, 24 hr
[2] = cited from earlier work
[3] = clinical; details: male, human, in vivo
[4] = test system: IL-1β; assay: LPS stimulated IL-1β production in human whole blood; assay type: cell-based
Description: Compounds were serially diluted in 100% DMSO (Sigma-Aldrich, D2650) followed by a 50× dilution into DMEM/10% FBS (Gibco, 11965/26140). Vehicle consisted of DMSO at a final assay concentration of 0.1%. Pin tools (V&P Scientific, Inc., VP246) were placed in the wells and the plate was placed at 37° C. with 5% CO2, with gently shaking for five minutes, then pin tools were removed and saved. […] Pin tools were placed in the wells in the same orientation as the previous step and gently shook for five minutes at 37° C. with 5% CO2, then removed. […] The plasma was harvested and assayed for TNF-α, IL-1β, and IL-6 using Meso Scale Discovery Technology V-plex human cytokine kits according to the kit protocol. The kit plates were read using an MSD Sector S 6000 instrument. Calculations to establish cytokine calibration curves and to determine analyte concentrations in the samples were carried out using the MSD DISCOVERY WORKBENCH® analysis software.

[5] = 13-week oral administration non-clinical safety study, rat; assay type: in vivo; details: for Cmax / AUC(0-t): 30 mg/kg/day oral; for AUC(0-t): read-out: AUC0-24
Description: Study Design. […] Rats were administered 0 (vehicle), 3, 10 and 30 mg/kg/day, and Mini-pigs were administered 0 (vehicle) 10, 30 and 60 mg/kg/day

[6] = test system: TNF-α; assay: IL-1β stimulated TNF-α production in human whole blood; assay type: cell-based
Description: Compounds were serially diluted in 100% DMSO (Sigma-Aldrich, D2650) followed by a 10× dilution into RPMI (Gibco, 11875). After the one-hour incubation with the compounds or vehicle, 2 μL of IL-1β (R&D, 201-LB-010) in RPMI (Gibco, 11875) was added for a final concentration of 0.5 μg/mL to each well except for the no stimulus wells. […]

[7] = test system: TNF-α; assay: Rat whole blood LPS stimulated TNF-α; assay type: cell-based; details: 100 ng/mL, 4 hr
[8] = Phase 2a RA study: Hand-Wrist MRI RAMRIS and CARLOS; assay type: in vivo, human; details: for Carlos Cartilage Loss, mean / RAMRIS Erosion Score, mean / RAMRIS Osteitis Score, mean / RAMRIS Synovitis Score, mean / Carlos Cartilage Loss, change from baseline, mean / RAMRIS Erosion Score, change from baseline, mean / RAMRIS Osteitis Score, change from baseline, mean / RAMRIS Synovitis Score, change from baseline, mean: n = 15
[9] = test system: endogenous cytokines (TNF-α, IL-6, IL-8, MIP1β, IL-1RA); assay: Phase 2a RA study: endogenous plasma cytokines; assay type: in vivo, human; details: 50 mg BID
Description: Pharmacodynamics. […] For the endogenous cytokine levels (e.g., TNF-α, IL-1β, IL-6, IL-8, IFNγ, IL-17, IL-18, IL-10, IL-1α, and IL-1RA), 1 mL of serum will be drawn at each identified time point. […] Samples were evaluated at trough drug levels through day 84 and the last point is near Cmax following the final dose on day 84. The horizontal line ( ? ) in FIG. 19A depicts TNF-α levels in blood from normal volunteer subjects that were evaluated in the same assay. […] The horizontal line ( ? ) in FIG. 19B represents IL-1RA levels in healthy subjects. […] Plasma levels of three proinflammatory cytokines (TNF-α (FIG. 20A), IL-6 (FIG. 20C), IL-8 (FIG. 20B)), from a 13-plex tested are shown in this Figure, along with the chemokine MIP1β (FIG. 20D). The data are expressed as median % change relative to pre-dosing for drug treated patients. […] The horizontal line ( ? ) describes cytokine/chemokine level in plasma from normal healthy volunteer subjects.

[10] = test system: TNF-α, IL-6, and IL-8; assay: Ex vivo IL-1β-induced TNF-α, IL-6 and IL-8 in blood of dosed healthy subjects; details: human
Description: Methods: Safety, pharmacokinetics (PK) and pharmacodynamics (PD) were assessed in two cohorts of subjects in a randomized, observer-blind, placebo-controlled study in male and female healthy subjects aged 18-55 (n=77). The study consisted of twenty (20) subjects enrolled into 2 cohorts. […] The final dose was administered in the morning on Day 7. Blood samples were obtained Day 1—before dosing, Day 1—4 hours after dosing and Day 1—12 hours after dosing and Day 7—before dosing, Day 7—4 hours after dosing, day 7—12 hour after dosing and Day 7—24 hours after dosing for each subject.

[11] = Phase 2a ATI-450 plus MTX in moderate to severe rheumatoid arthritis: clinical activity (DAS28-CRP, ACR20/50/70, joint counts, hsCRP); assay type: in vivo, human; details: 50 mg BID plus MTX
[12] = test system: IL-17A; assay: IL-17A production in CD4+ cells cultured under TH17 skewing conditions; assay type: cell-based, human
Description: CD4+ cells were cultured for 3 days under TH17 skewing conditions (anti-CD3, anti-CD28, anti-IL-4, anti-IFNγ, rIL-6, rIL-23, rTGFβ). On day 3, cells were harvested, washed, re-plated, and treated with compound or DMSO only. […] After 18-20 hours, supernatants were collected and assayed for IL-17A levels using MSD.

[13] = female, rat, in vivo, study day 88, females
[14] = male, rat, in vivo, study day 88, males
[15] = most severe hand, baseline, 50 mg BID arm
[16] = most severe hand, week 12, 50 mg BID
[17] = other hand, baseline, 50 mg BID arm

SMILES: Cc1cnc(-c2ccnc(C(C)(C)O)n2)cc1-n1c(C)cc(OCc2ncc(F)cc2F)c(Cl)c1=O (single isomer, unassigned) [ATI-450, 3-chloro-4-((3,5-difluoropyridin-2-yl)methoxy)-2′-(2-(2-hydroxypropan-2-yl)pyrimidin-4-yl)-5′,6-dimethyl-2H-[1,4′-bipyridin]-2-one]
- IC50 [1]: 31.1 nM
- bone marrow IL-1β in murine NOMID model ([2]; relative to placebo): reduction in bone marrow levels of IL-1β
- effect on disease in murine NOMID model ([2]; transgenic animal model): dramatic attenuation of disease
- Tmax [3]: 2 h
- IC50 ([4]; Human Whole Blood, LPS, 100 ng/mL, 4 or 24 hr, read-out: IC50, IL-1β): 6.1 nM
- IC50 ([4]; human whole blood, LPS 100 ng/mL, read-out: IC50, LPS-stimulated IL-1β): 10 to 100 nM
- non adverse finding, myocytes ([5]; 13-week oral): Minimal to moderate degeneration of myocytes at all doses, including control animals
- mortality ([5]; 13-week oral, up to 30 mg/kg/day): No study drug-related mortality was observed
- recovery of rat non adverse findings ([5]; after 13-week dosing): complete recovery following 28-day non-dosing period
- Cmax [5, 13]: 5440 ng/mL
- AUC(0-t) [5, 13]: 43500 ng·h/mL
- Cmax [5, 14]: 3260 ng/mL
- AUC(0-t) [5, 14]: 36400 ng·h/mL
- NOAEL at 13 weeks ([5]; rat, in vivo, 13-week oral, read-out: no-observed adverse effect level (NOAEL)): 30 mg/kg/day
- non adverse finding, nasal area ([5]; several animals at mid and high dose): minimal ulceration/mixed cell inflammation
- IC50 ([6]; Human Whole Blood, IL-1β, 10 ng/mL, 5 hr): 12.2 ± 4 nM
- IC80 ([6]; human whole blood): 0.031 ± 0.006 µg/mL (≈ 0.0603 µM)
- IC50 [7]: 14.3 ± 1.9 nM
- joint destruction and synovitis by MRI ([8]; 50 mg BID plus MTX, 12 weeks): prevents the progression of joint destruction and provides significant improvement in synovitis
- Carlos Cartilage Loss, mean [8, 15]: 7.6
- RAMRIS Erosion Score, mean [8, 15]: 13.27
- RAMRIS Osteitis Score, mean [8, 15]: 2.93
- RAMRIS Synovitis Score, mean [8, 15]: 6.1
- Carlos Cartilage Loss, change from baseline, mean [8, 16]: 0.03
- Carlos Cartilage Loss, mean [8, 16]: 7.63
- RAMRIS Erosion Score, change from baseline, mean [8, 16]: 0.63
- RAMRIS Erosion Score, mean [8, 16]: 13.9
- RAMRIS Osteitis Score, change from baseline, mean [8, 16]: 0.9
- RAMRIS Osteitis Score, mean [8, 16]: 3.83
- RAMRIS Synovitis Score, change from baseline, mean [8, 16]: −0.17
- RAMRIS Synovitis Score, mean [8, 16]: 5.93
- Carlos Cartilage Loss, mean [8, 17]: 7.45
- RAMRIS Erosion Score, mean [8, 17]: 13.3
- RAMRIS Osteitis Score, mean [8, 17]: 2.4
- RAMRIS Synovitis Score, mean [8, 17]: 4.07
- Carlos Cartilage Loss, change from baseline, mean ([8]; other hand, week 12, 50 mg BID): 0
- Carlos Cartilage Loss, mean ([8]; other hand, week 12, 50 mg BID): 7.45
- RAMRIS Erosion Score, change from baseline, mean ([8]; other hand, week 12, 50 mg BID): −0.27
- RAMRIS Erosion Score, mean ([8]; other hand, week 12, 50 mg BID): 13.03
- RAMRIS Osteitis Score, change from baseline, mean ([8]; other hand, week 12, 50 mg BID): 1
- RAMRIS Osteitis Score, mean ([8]; other hand, week 12, 50 mg BID): 3.4
- RAMRIS Synovitis Score, change from baseline, mean ([8]; other hand, week 12, 50 mg BID): 0.33
- RAMRIS Synovitis Score, mean ([8]; other hand, week 12, 50 mg BID): 4.4
- median concentrations of endogenous TNF-α, IL-6, IL-8, and MIP1β ([9]; 12-week period): marked and sustained inhibition
- endogenous plasma IL-1RA ([9]; 12 weeks): not impacted by ATI-450
- endogenous plasma IL-6, IL-8, and MIP1β ([9]; 12 weeks): reduced at week 4 and this reduction was maintained through the 12 weeks
- endogenous plasma TNF-α ([9]; trough): rapidly reduced by 4 weeks of dosing
- ex vivo IL-1β-induced TNF-α, IL-6, and IL-8 [10]: potently inhibits
- swollen and tender joint count over time ([11]; 84 days): sustained decrease in swollen joint count and tender joint count
- DAS28-CRP change from baseline over time ([11]; through day 84): rapid and sustained onset of efficacy
- hsCRP change from baseline over time ([11]; through day 84): rapid and sustained reduction in hsCRP
- median reduction from baseline in hsCRP ([11]; throughout the 12 weeks): > 40%
- mean change from baseline in DAS28-CRP (reduction) ([11]; week 12): 2.0
- ACR20 response ([11]; week 12, 15 subjects): 60%
- ACR50 response ([11]; week 12, 15 subjects): 33%
- ACR70 response ([11]; week 12, 15 subjects): 20%
- proportion of subjects with DAS28-CRP <2.6 (remission) ([11]; week 12, 15 subjects): 20%
- proportion of subjects with DAS28-CRP ≤ 3.2 (low disease activity or remission) ([11]; week 12, 15 subjects): 40%
- IL-17 production in CD4+ cells [12]: partially inhibits
